According to US11919908B2, “Substituted pyrrolo[2,3-d]pyrimidine compounds as JAK2 V617F inhibitors” (Incyte Corporation, priority 2020, dated 2024):
pIC50: −log10 of the molar value.

Assays:
[1] = biological target: T1, catalytic domain (JH1) of human JAK2 (Homo sapiens, UniProt O60674); assay: JAK2 LanthaScreen JH1 Binding Assay; details: 50 nM Fluorescent JAK2-JH1 Tracer, 2 hours at 25° C.
T1 construct: catalytic domain (JH1, amino acids 826-1132) of human JAK2; FLAG (N); purchased Carna Biosciences 08-445-20N; host or cells: baculovirus expression system
T1 sequence (O60674 826-1132): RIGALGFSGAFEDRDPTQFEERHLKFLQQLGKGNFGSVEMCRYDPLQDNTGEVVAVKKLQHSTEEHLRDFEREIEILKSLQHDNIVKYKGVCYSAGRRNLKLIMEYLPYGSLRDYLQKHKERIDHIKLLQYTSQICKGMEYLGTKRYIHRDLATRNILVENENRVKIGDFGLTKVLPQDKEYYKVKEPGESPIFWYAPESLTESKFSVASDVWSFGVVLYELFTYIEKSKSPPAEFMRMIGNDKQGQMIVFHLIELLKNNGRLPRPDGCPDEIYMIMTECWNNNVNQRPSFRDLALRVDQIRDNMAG
Protocol: Example A. JAK2 LanthaScreen […] Binding Assay JAK2 JH1 binding assay utilizes catalytic domain (JH1, amino acids 826-1132) of human JAK2 expressed as N-terminal FLAG-tagged, biotinylated protein in a baculovirus expression system (Carna Biosciences, Product #08-445-20N). The assay was conducted in black 384-well polystyrene plates in a final reaction volume of 20 μL. JAK2 JH1 (1.5 nM) was incubated with compounds (100 nL serially diluted in DMSO) in the presence of 50 nM Fluorescent JAK2-JH1 Tracer and 0.5 nM Streptavidin-Tb cryptate (Cisbio Part #610SATLB) in assay buffer (50 mM Tris, pH=7.5, 10 mM MgCl2, 0.01% Brij-35, 0.1% BSA, 1 mM EGTA, 5% Glycerol and 5 mM DTT). Non-specific binding was accessed in the presence of 2 mM ATP. After incubation for 2 hours at 25° C., LanthaScreen signals were read on a PHERAstar FS plate reader (BMG LABTECH). Data was analyzed with IDBS XLfit and GraphPad Prism 5.0 software using a four parameter dose response curve to determine IC50 for each compound.

[2] = biological target: T2, pseudo-kinase domain (JH2) of human Wild Type JAK2 (Homo sapiens, UniProt O60674, F794H/W659A/W777A); assay: JAK2 LanthaScreen JH2-WT Binding Assay; details: 50 nM Fluorescent JAK2-JH2 Tracer, 1 hour at 25° C.
T2 construct: pseudo-kinase domain (JH2, amino-acids 536-812 with 3 surface mutations W659A, W777A, F794H); His (C); purchased BPS Bioscience 79463; host or cells: baculovirus expression system
T2 sequence (O60674 536-812 W659A/W777A/F794H): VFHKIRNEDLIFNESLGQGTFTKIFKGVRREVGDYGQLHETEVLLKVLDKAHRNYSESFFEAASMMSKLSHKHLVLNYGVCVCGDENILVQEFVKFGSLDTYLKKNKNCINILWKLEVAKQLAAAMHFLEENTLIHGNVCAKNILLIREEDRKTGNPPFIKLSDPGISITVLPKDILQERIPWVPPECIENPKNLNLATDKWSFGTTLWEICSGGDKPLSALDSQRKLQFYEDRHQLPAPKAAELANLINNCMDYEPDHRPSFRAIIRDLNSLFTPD
Protocol: (§1) Example B. JAK2 LanthaScreen JH2-WT Binding Assay JAK2 JH2-WT binding assay utilizes pseudo-kinase domain (JH2, amino-acids 536-812 with 3 surface mutations […]) of human Wild Type JAK2 expressed as C-terminal His-Avi-tagged, biotinylated protein in a baculovirus expression system (BPS Bioscience, Catalog #79463). The assay was conducted in black 384-well polystyrene plates in a final reaction volume of 20 μL. JAK2 JH2-WT (0.145 nM) was incubated with compounds (100 nL serially diluted in DMSO) in the presence of 50 nM Fluorescent JAK2-JH2 Tracer (MedChem Express Catalog #HY-102055) and 0.25 nM Streptavidin-Tb cryptate (Cisbio Part #610SATLB) in assay buffer (50 mM Tris, pH=7.5, 10 mM MgCl2, 0.01% Brij-35, 0.1% BSA, 1 mM EGTA, 5% Glycerol and 5 mM DTT). Non-specific binding was accessed in the presence of 2 mM ATP. After incubation for 1 hour at 25° C., LanthaScreen signals were read on a PHERAstar FS plate reader (BMG LABTECH). Data was analyzed with IDBS XLfit and GraphPad Prism 5.0 software using a four parameter dose response curve to determine IC50 for each compound.

[3] = biological target: T3, pseudo-kinase domain (JH2) of human V617F mutant JAK2 (Homo sapiens, UniProt O60674, F794H/V617F/W659A/W777A); assay: JAK2 LanthaScreen JH2-V617F Binding Assay; details: 50 nM Fluorescent JAK2-JH2 Tracer, 1 hour at 25° C.
T3 construct: pseudo-kinase domain (JH2, amino-acids 536-812 with 3 surface mutations W659A, W777A, F794H); His (C); purchased BPS Bioscience 79498; host or cells: baculovirus expression system
T3 sequence (O60674 536-812 V617F/W659A/W777A/F794H): as the sequence (O60674 536-812 W659A/W777A/F794H) above, with V82F counted along it
Protocol: as §1, with “C.” for “B.”, “JH2-V617F” for “JH2-WT”, “V617F mutant” for “Wild Type”, “#79498).” for “#79463).”, “JH2-V617F (0.26” for “JH2-WT (0.145”

SMILES	pIC50 [1]	pIC50 [2]	pIC50 [3]
Cc1ccc(F)c(-c2c(-c3ccc(S(=O)(=O)N(C)C)cc3)[nH]c3nc(N)[nH]c(=O)c23)c1 [Example 69, 4-(2-Amino-5-(2-fluoro-5-methylphenyl)-4-oxo-4,7-dihydro-3H-pyrrolo[2,3-d]pyrimidin-6-yl)-N,N-dimethylbenzenesulfonamide]	5.60 to 6.00	6.30 to 7.00	6.30 to 7.00
COc1cccc(F)c1-c1c(-c2ccc(S(=O)(=O)N(C)C)cc2)[nH]c2nc(N)[nH]c(=O)c12 [Example 68, 4-(2-Amino-5-(2-fluoro-6-methoxyphenyl)-4-oxo-4,7-dihydro-3H-pyrrolo[2,3-d]pyrimidin-6-yl)-N,N-dimethylbenzenesulfonamide]	< 5.60	6.00 to 6.30	6.00 to 6.30
Cc1cccc(-c2c(-c3ccc(S(=O)(=O)N(C)C)cc3)[nH]c3nc(N)[nH]c(=O)c23)c1F [Example 67, 4-(2-Amino-5-(2-fluoro-3-methylphenyl)-4-oxo-4,7-dihydro-3H-pyrrolo[2,3-d]pyrimidin-6-yl)-N,N-dimethylbenzenesulfonamide]	6.30 to 7.00	6.30 to 7.00	6.30 to 7.00
Nc1nc2[nH]c(-c3ccccc3)c(-c3ccccc3OC(F)F)c2c(=O)[nH]1 [Example 1, 2-Amino-5-(2-(difluoromethoxy)phenyl)-6-phenyl-3,7-dihydro-4H-pyrrolo[2,3-d]pyrimidin-4-one]	< 5.60	< 5.60	< 5.60
CN(C)S(=O)(=O)c1ccc(-c2[nH]c3nc(N)[nH]c(=O)c3c2-c2ccc(C#N)cc2)cc1 [Example 39, 4-(2-Amino-5-(4-cyanophenyl)-4-oxo-4,7-dihydro-3H-pyrrolo[2,3-d]pyrimidin-6-yl)-N,N-dimethylbenzene sulfonamide]	< 5.60	6.00 to 6.30	5.60 to 6.00
COc1c(Cl)cccc1-c1c(-c2ccc(S(=O)(=O)N(C)C)cc2)[nH]c2nc(N)[nH]c(=O)c12 [Example 40, 4-(2-Amino-5-(3-chloro-2-methoxyphenyl)-4-oxo-4,7-dihydro-3H-pyrrolo[2,3-d]pyrimidin-6-yl)-N,N-dimethylbenzene sulfonamide]	< 5.60	< 5.60	< 5.60
CN(C)S(=O)(=O)c1ccc(-c2[nH]c3nc(N)[nH]c(=O)c3c2-c2ccccc2C#N)cc1 [Example 18, 4-(2-Amino-5-(2-cyano-phenyl)-4-oxo-4,7-dihydro-3H-pyrrolo[2,3-d]pyrimidin-6-yl)-N,N-dimethylbenzene sulfonamide]	< 5.60	< 5.60	< 5.60
CN(C)S(=O)(=O)c1ccc(-c2[nH]c3nc(N)[nH]c(=O)c3c2-c2cccc3c2OCCO3)cc1 [Example 7, 4-(2-Amino-5-(2,3-dihydrobenzo[b][1,4]dioxin-5-yl)-4-oxo-4,7-dihydro-3H-pyrrolo [2,3-d]pyrimidin-6-yl)-N,N-dimethylbenzene sulfonamide]	< 5.60	6.00 to 6.30	6.00 to 6.30
COc1ccccc1-c1c(-c2ccc(CN3CCC(S(C)(=O)=O)CC3)cc2)[nH]c2nc(N)[nH]c(=O)c12 [Example 53]	< 5.60	6.30 to 7.00	6.30 to 7.00
COc1ccccc1-c1c(-c2cccc(S(C)(=O)=O)c2)[nH]c2nc(N)[nH]c(=O)c12 [Example 63, 2-Amino-5-(2-methoxyphenyl)-6-(3-(methylsulfonyl)phenyl)-3,7-dihydro-4H-pyrrolo[2,3-d] pyrimidin-4-one]	< 5.60	< 5.60	< 5.60
CN(C)S(=O)(=O)c1ccc(-c2[nH]c3nc(N)[nH]c(=O)c3c2-c2ccc3c(c2)CCNC3=O)cc1 [Example 21, 4-(2-Amino-4-oxo-5-(1-oxo-1,2,3,4-tetrahydro-isoquinolin-6-yl)-4,7-dihydro-3H-pyrrolo[2,3-d]pyrimidin-6-yl)-N,N-dimethylbenzene sulfonamide]	5.60 to 6.00	6.30 to 7.00	6.30 to 7.00
Nc1nc2[nH]c(-c3ccccc3)c(-c3ccccc3C(F)(F)F)c2c(=O)[nH]1 [Example 59, 2-Amino-6-phenyl-5-(2-(trifluoro-methyl)phenyl)-3,7-dihydro-4H-pyrrolo[2,3-d] pyrimidin-4-one]	< 5.60	< 5.60	< 5.60
COc1ccc(OC)c(-c2c(-c3ccc(S(=O)(=O)N(C)C)cc3)[nH]c3nc(N)[nH]c(=O)c23)c1 [Example 25, 4-(2-Amino-5-(2,5-dimethoxyphenyl)-4-oxo-4,7-dihydro-3H-pyrrolo[2,3-d]pyrimidin-6-yl)-N,N-dimethylbenzene sulfonamide]	< 5.60	6.00 to 6.30	6.00 to 6.30
Nc1nc2[nH]c(-c3ccccc3)c(-c3cccc(F)c3)c2c(=O)[nH]1 [Example 58, 2-Amino-5-(3-fluorophenyl)-6-phenyl-3,7-dihydro-4H-pyrrolo[2,3-d] pyrimidin-4-one]	< 5.60	5.60 to 6.00	5.60 to 6.00
CN(C)S(=O)(=O)c1ccc(-c2[nH]c3nc(N)[nH]c(=O)c3c2-c2ccc(C(F)F)cc2)cc1 [Example 9, 4-(2-Amino-5-(4-(difluoromethyl)phenyl)-4-oxo-4,7-dihydro-3H-pyrrolo [2,3-d]pyrimidin-6-yl)-N,N-dimethylbenzene sulfonamide]	5.60 to 6.00	6.00 to 6.30	6.00 to 6.30
COc1ccccc1-c1c(-c2ccc(S(=O)(=O)N(C)C)cc2)[nH]c2nc(N)[nH]c(=O)c12 [Example 65, 4-(2-Amino-5-(2-methoxyphenyl)-4-oxo-4,7-dihydro-3H-pyrrolo[2,3-d]pyrimidin-6-yl)-N,N-dimethylbenzene-sulfonamide]	< 5.60	6.30 to 7.00	6.30 to 7.00
CN(C)S(=O)(=O)c1ccc(-c2[nH]c3nc(N)[nH]c(=O)c3c2-c2cnn(Cc3cccc(C(=O)O)c3)c2)cc1 [Example 51, 3-((4-(2-amino-6-(4-(N,N-dimethylsulfamoyl)phenyl)-4-oxo-4,7-dihydro-3H-pyrrolo[2,3-d]pyrimidin-5-yl)-1H-pyrazol-1-yl)methyl)benzoic acid]	5.60 to 6.00	6.00 to 6.30	6.00 to 6.30
CC(C)c1cccc(-c2c(-c3ccc(S(=O)(=O)N(C)C)cc3)[nH]c3nc(N)[nH]c(=O)c23)c1 [Example 6, 4-(2-Amino-5-(3-isopropylphenyl)-4-oxo-4,7-dihydro-3H-pyrrolo [2,3-d]pyrimidin-6-yl)-N,N-dimethylbenzene sulfonamide]	< 5.60	< 5.60	< 5.60
COc1ccc(C(F)(F)F)cc1-c1c(-c2ccc(S(=O)(=O)N(C)C)cc2)[nH]c2nc(N)[nH]c(=O)c12 [Example 24, 4-(2-Amino-5-(2-methoxy-5-(trifluoromethyl)phenyl)-4-oxo-4,7-dihydro-3H-pyrrolo[2,3-d]pyrimidin-6-yl)-N,N-dimethylbenzene sulfonamide]	< 5.60	5.60 to 6.00	5.60 to 6.00
